In ChEMBL document CHEMBL5104163, “Modulation of key antioxidant enzymes and cell cycle arrest as a possible antifungal mode of action of cinnamaldehyde based azole derivative” (2022):
Values after ≈ are worked out from the molar mass of the structure shown. Values belong to the compound of their own block, whether it stands above or below them. Active and inactive are the calls of the source. The calls are words filed in the database; no cut-off is given here.

Assays:
[1] = system: [Candida] auris; assay: Antifungal activity against Candida auris MRL6057; assay type: functional; conditions: Candidozyma auris
[2] = system: [Candida] auris; assay: Antifungal activity against Candida auris MRL6057 assessed as dead cells at 0.49 ug/ml; assay type: functional, Candidozyma auris; conditions: dose 0.49 µg/ml
[3] = system: [Candida] auris; assay: Antifungal activity against Candida auris MRL6057 assessed as dead cells at 0.98 ug/ml; assay type: functional, Candidozyma auris; conditions: dose 0.98 µg/ml
[4] = system: [Candida] auris; assay: Antifungal activity against Candida auris MRL6057 assessed as dead cells at 1.96 ug/ml; assay type: functional, Candidozyma auris; conditions: dose 1.96 µg/ml
[5] = system: Candida albicans; assay: Antifungal activity against Candida albicans assessed as dead cells; assay type: functional
[6] = system: [Candida] auris; assay: Induction of cell cycle arrest in Candida auris MRL6057 cells assessed as cell population at G0/G1 phase at 0.5xMIC measured by Muse cell analyzer; assay type: functional, Candidozyma auris
[7] = system: [Candida] auris; assay: Induction of cell cycle arrest in Candida auris MRL6057 cells assessed as cell population at S phase at 0.5xMIC measured by Muse cell analyzer; assay type: functional, Candidozyma auris
[8] = system: [Candida] auris; assay: Induction of cell cycle arrest in Candida auris MRL6057 cells assessed as cell population at G2/M phase at 0.5xMIC measured by Muse cell analyzer; assay type: functional, Candidozyma auris
[9] = system: [Candida] auris; assay: Induction of cell cycle arrest in Candida auris MRL6057 cells assessed as cell population at G0/G1 phase at MIC measured by Muse cell analyzer; assay type: functional, Candidozyma auris
[10] = system: [Candida] auris; assay: Induction of cell cycle arrest in Candida auris MRL6057 cells assessed as cell population at S phase at MIC measured by Muse cell analyzer; assay type: functional, Candidozyma auris
[11] = system: [Candida] auris; assay: Induction of cell cycle arrest in Candida auris MRL6057 cells assessed as cell population at G2/M phase at MIC measured by Muse cell analyzer; assay type: functional, Candidozyma auris
[12] = system: [Candida] auris; assay: Induction of oxidative stress in Candida auris MRL6057 incubated for 2 hrs and assessed as increase in LPO activity; assay type: functional, organism-based; conditions: Candidozyma auris
[13] = system: [Candida] auris; assay: Induction of oxidative stress in Candida auris MRL6057 incubated for 2 hrs assessed as increase in CAT activity; assay type: functional, organism-based; conditions: Candidozyma auris
[14] = system: [Candida] auris; assay: Induction of oxidative stress in Candida auris MRL6057 incubated for 2 hrs assessed as increase in SOD activity; assay type: functional, organism-based; conditions: Candidozyma auris
[15] = system: [Candida] auris; assay: Induction of oxidative stress in Candida auris MRL6057 incubated for 2 hrs assessed as increase in GPx activity; assay type: functional, organism-based; conditions: Candidozyma auris
[16] = system: [Candida] auris; assay: Induction of oxidative stress in Candida auris MRL6057 incubated for 2 hrs assessed as decrease in GLR activity; assay type: functional, organism-based; conditions: Candidozyma auris
[17] = system: [Candida] auris; assay: Induction of oxidative stress in Candida auris MRL6057 incubated for 2 hrs assessed as decrease in GST activity; assay type: functional, organism-based; conditions: Candidozyma auris
[18] = system: [Candida] auris; assay: Induction of oxidative stress in Candida auris MRL6057 incubated for 2 hrs and assessed as upregulation of CATA mRNA expression measured by RT-qPCR analysis; assay type: functional, organism-based; conditions: Candidozyma auris
[19] = system: [Candida] auris; assay: Induction of oxidative stress in Candida auris MRL6057 incubated for 2 hrs and assessed as upregulation of SOD4 mRNA expression measured by RT-qPCR analysis; assay type: functional, organism-based; conditions: Candidozyma auris
[20] = system: [Candida] auris; assay: Induction of oxidative stress in Candida auris MRL6057 incubated for 2 hrs and assessed as upregulation of GPx3 mRNA expression measured by RT-qPCR analysis; assay type: functional, organism-based; conditions: Candidozyma auris
[21] = system: [Candida] auris; assay: Induction of oxidative stress in Candida auris MRL6057 incubated for 2 hrs and assessed as downregulation of GST1 mRNA expression measured by RT-qPCR analysis; assay type: functional, organism-based; conditions: Candidozyma auris
[22] = system: [Candida] auris; assay: Induction of oxidative stress in Candida auris MRL6057 incubated for 2 hrs and assessed as downregulation of GSHR mRNA expression measured by RT-qPCR analysis; assay type: functional, organism-based; conditions: Candidozyma auris
[23] = system: [Candida] auris; assay: Antifungal activity against clinical strain Candida auris; assay type: functional; conditions: Candidozyma auris

Structure (SMILES): O=C(Cn1nnc(/C=C/c2ccccc2)n1)N/N=C/c1ccc([N+](=O)[O-])cc1
MFC [1]: 1.96 µg/mL (≈ 5.19 µM) | MIC [1]: 0.98 µg/mL (≈ 2.6 µM) | Activity [2]: 69.2% | Activity [3]: 83.1% | Activity [4]: 99.9% | Activity [5]: 75% | Activity [6]: 48.2% | Activity [7]: 44.5% | Activity [8]: 7.2% | Activity [9]: 2.3% | Activity [10]: 49.3% | Activity [11]: 48.3% | Activity [12]: Active | Activity [13]: Active | Activity [14]: Active | Activity [15]: Active | Activity [16]: Active | Activity [17]: Active | Activity [18]: Active | Activity [19]: Active | Activity [20]: Active | Activity [21]: Active | Activity [22]: Active

MIC [1]: 4 µg/mL (≈ 4.33 µM) | MIC [23]: ≥ 2 µg/mL
Structure (SMILES): C[C@@H]1[C@H](O)[C@@H](C)/C=C/C=C/C=C/C=C/C=C/C=C/C=C/[C@H](O[C@@H]2O[C@H](C)[C@@H](O)[C@H](N)[C@@H]2O)C[C@@H]2O[C@](O)(C[C@@H](O)C[C@@H](O)[C@H](O)CC[C@@H](O)C[C@@H](O)CC(=O)O[C@H]1C)C[C@H](O)[C@H]2C(=O)O [AMPHOTERICIN B]
MFC [1]: 8 µg/mL (≈ 8.66 µM)
